# Literature values in patent US20230210937A1, “COMPOSITIONS AND METHODS FOR THE TREATMENT AND/OR PROPHYLAXIS OF DIABETES AND OTHER CONDITIONS” (LIFELOCK BIOSCIENCE SOLUTIONS INC., priority 2019, published 2023).
# Tests used:
# [1] = test system: colon cancer cell line Caco-2
# [2] = target: PAK1 (Rattus norvegicus, UniProt P35465); conditions: skeletal muscle cells, co-immunoprecipitation
# [3] = target: mTORC1 (Homo sapiens, UniProt P42345)
# [4] = Caco-2, 100 ng/mL PMA, 2.5 mM IP6
# PAK1, sequence (P35465 2-544 limits assumed): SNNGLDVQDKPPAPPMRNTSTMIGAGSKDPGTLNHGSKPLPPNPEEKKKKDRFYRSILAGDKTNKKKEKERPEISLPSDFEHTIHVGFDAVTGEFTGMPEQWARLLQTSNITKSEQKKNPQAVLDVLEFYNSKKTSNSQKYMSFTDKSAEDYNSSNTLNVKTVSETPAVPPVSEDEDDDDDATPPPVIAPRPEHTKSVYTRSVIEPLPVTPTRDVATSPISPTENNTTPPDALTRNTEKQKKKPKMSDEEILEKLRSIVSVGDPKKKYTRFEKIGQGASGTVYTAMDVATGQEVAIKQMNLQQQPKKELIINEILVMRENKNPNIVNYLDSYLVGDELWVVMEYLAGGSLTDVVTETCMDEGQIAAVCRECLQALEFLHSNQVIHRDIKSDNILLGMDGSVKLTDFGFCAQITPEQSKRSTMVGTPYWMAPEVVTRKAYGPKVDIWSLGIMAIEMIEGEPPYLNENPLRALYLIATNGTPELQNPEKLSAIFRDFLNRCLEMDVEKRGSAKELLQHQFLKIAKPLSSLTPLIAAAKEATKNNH
smiles,measurement,setting,value
"O=P(O)(O)OC1C(OP(=O)(O)O)C(OP(=O)(O)O)C(OP(=O)(O)O)C(OP(=O)(O)O)C1OP(=O)(O)O [IP6, (1R,2S,3R,4R,5S,6s)-cyclohexane-1,2,3,4,5,6-hexayl hexakis[dihydrogen (phosphate)]]","MMP-1 expression, PMA and IP6 in comparison to PMA-stimulated cells",[1]; [4],significant decrease
same,MMP-9 transcription induced by PMA,[1]; [4],down-regulated
same,level of both MMP-2 and MMP-3 mRNAs in PMA-stimulated cells,[1]; [4],decreased
same,"MMP-2, MMP-3, MMP-10, MMP-13, and TIMP-1 expression","[1]; Caco-2, 2.5 mM of IP6, 6 and 12 h",significant decrease
Oc1ccc2ccccc2c1SSc1c(O)ccc2ccccc12 [IPA3],"insulin-stimulated associations of p41ARC, N-WASP, cortactin and actin",[2],ablated
"COc1cc(/C=C/C(=O)CC(=O)/C=C/c2ccc(O)c(OC)c2)ccc1O [curcumin, (1E,6E)-1,7-Bis(4-hydroxy-3-methoxyphenyl)hepta-1,6-diene-3,5-dione]",TSC1/2 interaction,[3],did not alter
same,raptor-mTOR association,[3]; leading to inhibition of mTORC1 activity,able to dissociate raptor from mTOR
same,phosphorylation of p70S6kinase 1 (S6K1) and 4E-BP1,[3]; numerous cancer cell lines,inhibits
